Assays:
LV-VSV-G = format: cell-based, VSV-G pseudotyped lentivirus
HSV-2 [1] = assay: Inhibition assay HSV-2 (dose response, plaque reduction in Vero cells); format: cell-based; details: HSV-2, dose response assay (FIG. 1/2 top)
Experimental: The effect of cyclodextrins (CDs) on HSV infection was evaluated by a plaque reduction assay. Vero cells were pre-plated 24 h in advance in 24-well plates at a density of 10^5 cells. Increasing concentrations of cyclodextrins were incubated with HSV-2 (multiplicity of infection (MOI) 0.0003 plaque forming units (pfu)/cell) at 37° C. for 1 hour and then the mixtures were added to the cells. Following virus adsorption (2 h at 37° C.), the virus inoculum was removed, the cells were washed with medium and then overlaid with a medium containing 1.2% methylcellulose. After 24 h (HSV-2) of incubation at 37° C., cells were fixed and stained with 0.1% of crystal violet in 20% ethanol and viral plaques were counted. The concentration producing 50% reduction in plaque formation (IC50) was determined using the Prism software by comparing drug-treated and untreated wells.

HSV-2 [2] = assay: Evaluation of virucidal activity against HSV-2; format: cell-based; details: HSV-2, virucidal assay (FIG. 1/2 bottom)
Experimental: (§1) Evaluation of Virucidal Activity Against HSV-2, HPV-16
(§2) Viral titers were calculated at dilutions at which the nanoparticle was not effective

HPV-16 = assay: Evaluation of virucidal activity against HPV-16; format: cell-based, human papillomavirus (HPV); details: FIG. 6
Experimental: as §1, §2

O[C@@H]1[C@@H](O)[C@H]2O[C@H]3[C@H](O)[C@@H](O)[C@@H](O[C@H]4[C@H](O)[C@@H](O)[C@@H](O[C@H]5[C@H](O)[C@@H](O)[C@@H](O[C@H]6[C@H](O)[C@@H](O)[C@@H](O[C@H]7[C@H](O)[C@@H](O)[C@@H](O[C@H]8[C@H](O)[C@@H](O)[C@@H](O[C@@H]1[C@@H](CI)O2)O[C@@H]8CI)O[C@@H]7CI)O[C@@H]6CI)O[C@@H]5CI)O[C@@H]4CI)O[C@@H]3CI [CD1, Heptakis-6-iodo-6-deoxy-beta-cyclodextrin]
Virucidal assay, Dilutions: 1:10 (LV-VSV-G): 27.38
Virucidal assay, Dilutions: Stock (LV-VSV-G): 85.49

beta-cyclodextrin sulfonate [reference compound]
Inhibition of HSV-2 in dose response assay (HSV-2 [1]): Inhibition is observed at high concentrations
Virucidal effect against HSV-2 in virucidal assay (HSV-2 [2]): no virucidal effect is observed

O=S(=O)(O)CCCCCCCCCCCSCC1OC2OC3C(CSCCCCCCCCCCCS(=O)(=O)O)OC(OC4C(CSCCCCCCCCCCCS(=O)(=O)O)OC(OC5C(CSCCCCCCCCCCCS(=O)(=O)O)OC(OC6C(CSCCCCCCCCCCCS(=O)(=O)O)OC(OC7C(CSCCCCCCCCCCCS(=O)(=O)O)OC(OC8C(CSCCCCCCCCCCCS(=O)(=O)O)OC(OC1C(O)C2O)C(O)C8O)C(O)C7O)C(O)C6O)C(O)C5O)C(O)C4O)C(O)C3O (stereo not shown) [CD2]
Virucidal effect against HSV-2 in virucidal assay (HSV-2 [2]): Virucidal effect observed
Virucidal effect against human papillomavirus (HPV) (HPV-16): virucidal effect
Virucidal effect against Lenti virus (LV-VSV-G): virucidal effect
